This data set in a line: Kinematic viscosity of shampoo base formulation with viscosity reducing agent (calibrated viscometers). In kind it is physicochemical. The conditions noted are these: lowest of 2-8% agent in base formulation, 40° C. The text has this: Now referring to Tables 11 and 12, the base formulations were made by mixing 1.6% perfume, 24% linear sodium undecyl sulfate (CAS# 1072-24-8) active, 6% lauramidopropyl betaine (CAS# 4292-10-8) active and 60.4% deionized water which leaves 8% unfilled for the addition of a viscosity reducing agent (the balance being filled in by distilled water). For all compositions, the surfactant, water and additives including viscosity reducing agents were expected to be in a single phase.
The agents from Tables 11 and 12 were added to the base formulation at a percentage of 2%, 4%, 6%, and 8% into the above surfactant solution. The subsequent formulations were vortexed and put into oven at 60° C. overnight to form homogeneous solution. The viscosities of the formulations were measured with calibrated viscometers (Size 200/350/450) from Cannon Instrument Company (2139 High Tech Road, State College, Pa., USA, 16803).
After the equilibration, the formulations were drawn to reach the starting mark with a rubber suction bulb and the flow time between the starting mark and end mark was recorded for calculation. Each formulation was measured three times to calculate average and standard deviation. Between samples, viscometer was cleaned with water and acetone to rinse off residual.
Viscosity values in Table 11 and Table 12 were calculated based on the equation:
Viscosity (mm^2/s. (cSt))=Time (s)*Constant (mm^2/s^2. (cSt/s))
The time in the above equation is the flow time recorded in the experiment and the constant numbers for each calibrated viscometer were obtained from the manuals.

Counter-ions that a name gives are not always drawn.

As for `CC12CCC(CC1)C(C)(C)O2` [Eucalyptol], the “Lowest viscosity achieved (cSt)” value is given as 203 cSt.
Regarding `CCC(CC(C)CC)=NO` (stereo not shown) [5-Methyl-3-Heptanone Oxime], the “Lowest viscosity achieved (cSt)” value is given as 246 cSt.
In the case of `CC(C)COC(=O)c1ccccc1O` [Iso Butyl Salicylate], the “Lowest viscosity achieved (cSt)” value is given as 409 cSt.
`CCOC(=O)CC(O)(CC(=O)OCC)C(=O)OCC` [Triethyl Citrate]: the “Lowest viscosity achieved (cSt)” value came out at 41 cSt.
With `CC(=O)CCc1ccc(O)cc1` [Raspberry Ketone], the “Lowest viscosity achieved (cSt)” value turned out to be 33 cSt.
In the case of `CCCCCCC1C(=O)CCC1C(=O)OC` (stereo not shown) [Dihyro Iso Jasmonate], the “Lowest viscosity achieved (cSt)” value is reported as 119 cSt.
In the case of `CCCCCC1(C)CCC(C)(C)C1=O` (stereo not shown) [Veloutone], the “Lowest viscosity achieved (cSt)” value is on record as 47 cSt.
Consider `CCC(=O)OC1CC2CC1C1CC=CC21` (stereo not shown) [Cyclaprop], for which the “Lowest viscosity achieved (cSt)” value is 404 cSt.
For `CC(C)CCOC(=O)c1ccccc1O` [Isoamyl Salicylate] the value was 193 cSt; for `CCCCCCCCCCCCCCCC` [Hexadecane], 18 cSt.
With `C=C(C)[C@H]1CC=C(C)CC1` [Dipentene], the “Lowest viscosity achieved (cSt)” value came out at 35 cSt.
With `CC12CCC(CC1=O)C2(C)C` (stereo not shown) [Camphor Gum], the “Lowest viscosity achieved (cSt)” value was 127 cSt.
The figure for `CCC(=O)O[C@@H]1C[C@H]2CC[C@]1(C)C2(C)C` (racemic) [Iso Bornyl Propionate] is 463 cSt; for `COC(C)(C)C1CC=C(C)CC1` (stereo not shown) [Orange Flower Ether] it is 419 cSt.
On to `CC(C)=CCC/C(C)=C/COC(=O)Cc1ccccc1` [Geranyl Phenyl Acetate], for which the “Lowest viscosity achieved (cSt)” value worked out at 34 cSt.
In the case of `CCCCCCCC(OC)OC` [1,1-Dimethoxyoctane], the “Lowest viscosity achieved (cSt)” value came out at 308 cSt.
Consider `CCCCCC(=O)OCC(C)C` [Isobutyl Hexanoate], for which the “Lowest viscosity achieved (cSt)” value amounted to 109 cSt.
As for `CCCCOC(=O)c1ccccc1O` [Butyl Salicylate], the “Lowest viscosity achieved (cSt)” value is listed as 368 cSt.
On to `CC(C)CC=C(C=O)C(C)C` [2-Isopropyl-5-methyl-2-hexenal], for which the “Lowest viscosity achieved (cSt)” value was 332 cSt.
`CC1=CCC(C(C)C)=CC1` [gamma-Terpinene]: the “Lowest viscosity achieved (cSt)” value is given as 32 cSt.
`CCO` [Ethanol]: the “Lowest viscosity achieved (cSt)” value stood at 29 cSt.
As to `CCCCCCCCCCCCCC(=O)OC(C)C` [Iso Propyl Myristate], the “Lowest viscosity achieved (cSt)” value came to 30 cSt.
Turning to `C=CC(C)(CCC=C(C)C)OC(=O)C(C)C` (stereo not shown) [Linalyl Iso Butyrate], the “Lowest viscosity achieved (cSt)” value was 38 cSt.
Turning to `CC1=CC=C(C(C)C)CC1` [alpha-Terpinene], the “Lowest viscosity achieved (cSt)” value came out at 42 cSt.
As for `CC(CC=O)CCCC(C)(C)O` (stereo not shown) [Hydroxycitronellal], the “Lowest viscosity achieved (cSt)” value came out at 34 cSt.
On to `CC(=O)OCCC(C)CCCC(C)C` (stereo not shown) [3,7-Dimethyloctyl Acetate], for which the “Lowest viscosity achieved (cSt)” value came out at 446 cSt.
Turning to `C=C(C)[C@H]1CC=C(C)CC1` [Limonene], the “Lowest viscosity achieved (cSt)” value is given as 86 cSt.
As to `CC(=O)OCCC(C)CCC=C(C)C` (stereo not shown) [Citronellyl Acetate], the “Lowest viscosity achieved (cSt)” value turned out to be 363 cSt.

The record behind these values is US20180353398A1, “HAIR CARE REGIMEN USING NA AEROSOL FOAM CONCENTRATED CONDITIONER” (The Procter & Gamble Company, priority 2015, published 2018).
